# Measured values from PMC10755736, “Modulating Liquid–Liquid Phase Separation of Nck Adaptor Protein against Enteropathogenic Escherichia coli Infection” (ACS Central Science, 2023).
# Entries after “also recorded” stand apart in the source; their conditions may differ. Non-standard residues stand in square brackets, D forms with d. Residues, ends and D or L forms follow the SMILES beside them. *: point of attachment. Biotin = O=C1N[C@H]2[C@H](CS[C@H]2CCCCC(=O)*)N1; Benzoyl(4-SO2F) = O=C(c1ccc(S(=O)(=O)F)cc1)*; pY = N[C@@H](Cc1ccc(OP(=O)(O)O)cc1)C(=O)O; Dap = NC[C@H](N)C(=O)O
# Key:
# Nck/N-WASP/3pY = target: T1, Nck/N-WASP/3pY (Homo sapiens, UniProt P16333); experiment: Disruption of Nck/N-WASP/3pY droplets by pY peptides (microscopy); assay type: biochemical; conditions: peptide 12.5, 25, 50, 100 µM; 0, 10, 30 min; Nck 80 μM, N-WASP 15 μM, 3pY 10 μM; confocal
# T1 construct: GST (followed by PreScission/HRV 3C site) (N, cleaved yes); made in house; host or cells: E. coli BL21(DE3)
# Protocol: Next, we explored the intervention of Nck/N-WASP/3pY LLPS using pY peptides (Figure 3a). Three pY-containing peptides extracted from different Tir sequences were synthesized, namely, peptides Y474, Y751, and Y147 (Figure 3b).
# Figure 3 pY peptides disrupt Nck/N-WASP/3pY LLPS. (a) Sequences of synthetic pY peptides. […] Nck: 20 μM; N-WASP: 10 μM; 3pY: 10 μM. Scale bars, 20 μm. (c) Peptide Y474 rapidly decreases the turbidity of the Nck/N-WASP/3pY solution in around 20 min. Nck: 20 μM, N-WASP: 10 μM, 3pY: 10 μM. […] Nck: 20 μM, N-WASP: 10 μM, 3pY: 10 μM. […]
# peptide 0 min 10 min 30 min
# Peptides p1 with different concentrations were added to decrease the droplet formation of the Nck/N-WASP/3pY solution and droplet disassembles were observed under confocal microscopy at different times (0 min, 10 min and 30 min). Nck: 80 μM, N-WASP: 15 μM, 3pY: 10 μM. […]
# Figure S13. […] Peptides Y474 with […]
# different concentrations were added to decrease the droplet formation of the Nck/N-WASP/3pY solution and droplet disassembles were observed under confocal microscopy at different times (0 min, 10 min and 30 min). Nck: 80 μM, N-WASP: 15 μM, 3pY: 10 μM.
# Nck in Caco-2 cells = experiment: In cell reaction of p1 with endogenous Nck (Western blot); assay type: cell-based; conditions: L17E and p1 (printed 40 mM and 10 mM) overnight; anti-Nck Western blot
# Protocol: Caco-2 cells were seeded in a 24-well plate at a density of 1×10^4 cells for 24 h and pretreated with peptide complexes for 2 h. After washing with DMEM, cells were infected with EPEC at selected MOI values for 3 h at 37 ℃. Cells were then treated with gentamicin ([…]) for 2 h and lysed with 1% Triton X-100 for 15 min. The lysates were diluted 100 or 1000 folds to be spread on LB agar plates […]
# Immunofluorescence Confocal Microscopy
# Infected cells were fixed with 4% PFA and treated with 0.1% Triton X-100 for 10 min. And then the samples were blocked with 3% BSA for 1 h, incubated with anti-Tir antibody (Abbexa, C ambridge, UK) at 1:200 at 4℃ over night and followed by incubation with Alexa Fluo 488 goat anti -rabbit IgG secondary antibody at room temperature for 2 h. Cells were treated with DAPI (Invitrogen) for 10 min, then stained with phalloidin (Alexa Fluor 594 -conjugated phalloidin, Invitrogen) for 1 h and imaged by a confocal fluorescent microscope (SP8, Leica).
# Caco -2 cells were treated with peptides overnight and lysed via RIPA buffer containing protease inhibitors for 15 min at 4℃. […]
# SPSS 23.0 statistical software was used to process experimental data. The differences between mean ± SEM of three independent experiments were assessed by Student's t -test. […]
# [1] = tested on: Nck puncta in Caco-2 cells; experiment: Nck puncta number in Caco-2 cells overexpressing dsRed-Nck; assay type: cell-based; conditions: L17E 40 μM, p1 1 μM, N = 20 cells
# Source text: Figure 6 Peptide p1 inhibits the formation of the Nck/N-WASP condensate in mammalian cells. (a) Schematic illustration showing inhibition of intracellular Nck coacervation by p1. (b) Confocal microscopic images showing the formation of Nck/N-WASP puncta in HeLa cells that overexpress GFP-N-WASP and dsRed-Nck. Scale bar: 10 μm. (c) FRAP analysis showing the Nck/N-WASP condensates in HeLa cells have fluidity properties based on the recovery of the GFP fluorescent signal after photobleaching in a two-photon microscope with excitation at 920 nm. Scale bar: 5 μm. […] L17E, 40 μM; p1, 1 μM. Statistical analyses of puncta number per cell in the control and experiment (L17E/p1). N = 20 cells. […]
# concentrations were added to each well, followed by a 90-min incubation at 37 °C. Diluted streptavidin-HRP solution was then added, followed by substrate solution to develop cover at 450 nm, and recorded by a plate reader. […] And then the samples were scanned and measured at 20% IR Laser power with 30 s laser-on time on a Monolith NT.115 instrument (NanoTemper Technologies). The data were analyzed by KD fitting model (KD) or hill fitting model […]
# Plasmid extraction was done using a plasmid DNA Maxi kit (Omega Bio-Tek, GA, USA). […] 48 h after transfection, cells were analyzed by fluorescent micrscopes. Cell viability was measured by a CCK8 assay (Thermo Fisher Scientific) according to its manual.
structure (smiles),measurement,setting,value
CC[C@H](C)[C@H](NC(=O)[C@H](Cc1c[nH]cn1)NC(=O)[C@H](CCC(=O)O)NC(=O)[C@H](CCC(=O)O)NC(=O)CCCC[C@@H]1SC[C@@H]2NC(=O)N[C@@H]21)C(=O)N[C@@H](Cc1ccc(OP(=O)(O)O)cc1)C(=O)N[C@@H](CNC(=O)c1ccc(S(=O)(=O)F)cc1)C(=O)N[C@@H](CCC(=O)O)C(=O)N[C@H](C(=O)N[C@@H](C)C(=O)N[C@@H](C)C(=O)N[C@@H](CC(=O)O)C(N)=O)C(C)C [p1] (Biotin-EEHI[pY][Dap](Benzoyl(4-SO2F))EVAAD-NH2; N-terminus and C-terminus assumed),reversal of Nck/N-WASP/3pY phase separation (droplet disassembly),Nck/N-WASP/3pY,reverses the phase separation; also recorded: disintegrate phase-separated Nck droplets
same,reaction with endogenous Nck in cytosol,Nck in Caco-2 cells,reacted with the endogenous Nck in the cytosol of Caco-2 cells
same,number of Nck puncta,[1],reduced the number of Nck puncta
same,decline in Nck puncta numbers,[1]; 2 h,50%
